Laboratory results as given in the supplement of paper PMC10307832.

Tests used:
Test in all cases: relative viability (nuclei count vs DMSO), 5 days (fraction); higher = more cells survive
[1] = compound: Cc1ccc(NC(=O)c2ccc(CN3CCN(C)CC3)cc2)cc1Nc1nccc(-c2cccnc2)n1 [Imatinib]
Outline: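 Five library-drug doses, separated by factors of √10, were pinned into 1536-well plates holding lung cancer cell lines after an overnight stay at 37 °C. Cells were fixed, permeabilised and Hoechst-stained in one step after 5 days without medium change, then imaged at 4×. Viability compares treated-well with vehicle-well nuclei, counted in MetaXpress, as a median across plates. Passing plates had control CV below 25% and at least one doubling.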

[2] = compound: Cc1ccc(NC(=O)c2ccc(CN3CCN(C)CC3)cc2)cc1Nc1nccc(-c2cccnc2)n1 [Imatinib] + C[C@@H](Oc1cc(-c2cnn(C3CCNCC3)c2)cnc1N)c1c(Cl)ccc(F)c1Cl [Crizotinib] (partner 1 µM)
Outline: (§1)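 For relative viability, nuclei counts in treated wells were divided by those in vehicle wells. Lung cancer cell lines had been pin-tool dosed in 1536-well plates the day after seeding and cultured for 5 days, then fixed and stained in one step (final 0.05% Triton X-100, 1% formaldehyde, 1 ug/ml Hoechst) and imaged at 4×. Doses were one drug alone or a fixed anchor-drug dose plus five library-drug doses (not always all listed) in √10 steps, and values are duplicate-plate medians.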

[3] = compound: Cc1ccc(NC(=O)c2ccc(CN3CCN(C)CC3)cc2)cc1Nc1nccc(-c2cccnc2)n1 [Imatinib] + Nc1ncn([C@H]2C[C@H](O)[C@@H](CO)O2)c(=O)n1 [Decitabine] (partner 2 µM)
Outline: as §1

[4] = compound: Cc1ccc(NC(=O)c2ccc(CN3CCN(C)CC3)cc2)cc1Nc1nccc(-c2cccnc2)n1 [Imatinib] + O=C(c1cc(Cc2n[nH]c(=O)c3ccccc23)ccc1F)N1CCN(C(=O)C2CC2)CC1 [Olaparib] (partner 8 µM)
Outline: as §1

Cell Line	relative viability ([1]; 0.02 µM)	relative viability ([1]; 0.06325 µM)	relative viability ([1]; 0.2 µM)	relative viability ([1]; 0.6325 µM)	relative viability ([2]; first compound 0.02 µM)	relative viability ([2]; first compound 0.06325 µM)	relative viability ([2]; first compound 0.2 µM)	relative viability ([2]; first compound 0.6325 µM)	relative viability ([2]; first compound 2 µM)	relative viability ([3]; first compound 0.02 µM)	relative viability ([3]; first compound 0.06325 µM)	relative viability ([3]; first compound 0.2 µM)	relative viability ([3]; first compound 0.6325 µM)	relative viability ([3]; first compound 2 µM)	relative viability ([4]; first compound 0.02 µM)	relative viability ([4]; first compound 0.06325 µM)	relative viability ([4]; first compound 0.2 µM)	relative viability ([4]; first compound 0.6325 µM)	relative viability ([4]; first compound 2 µM)	relative viability ([1]; 2 µM)
NCI-H441	1.06	0.969	1.2	0.885	0.659	0.796	0.796	0.879	0.737	0.252	0.234	0.249	0.26	0.268	0.577	0.793	0.554	0.6	0.635	–
NCI-H460	1.1	0.985	1.11	0.925	1.29	1.38	1.55	0.881	0.85	0.603	0.333	0.63	0.511	0.575	0.515	0.431	0.402	0.462	0.396	1
NCI-H520	1.11	1.15	0.907	0.882	0.764	0.978	0.874	0.963	0.647	0.531	0.514	0.532	0.508	0.487	0.368	0.356	0.305	0.301	0.371	0.938
NCI-H596	–	0.903	1.03	1.01	–	0.991	1.06	0.928	0.975	1.12	1.01	1.17	–	0.971	0.648	0.811	0.681	0.665	0.747	0.907
NCI-H647	0.976	1.05	1.12	0.991	1.1	1.36	1.45	1.12	1.06	0.454	0.432	0.421	0.366	0.37	0.803	0.67	0.792	0.588	0.495	0.962
NCI-H650	1	0.779	1.02	1.1	0.708	0.913	0.916	0.656	0.812	0.299	0.36	0.291	0.313	0.262	0.432	0.405	0.392	0.431	0.383	0.824
NCI-H661	0.977	0.962	0.994	0.969	–	0.806	1.05	–	0.869	0.597	0.592	0.532	0.585	0.613	0.747	0.94	0.853	0.773	0.703	0.982
NCI-H727	0.818	0.676	0.957	1.08	–	0.853	0.944	0.845	0.792	–	–	0.904	0.84	0.808	0.644	–	0.696	0.712	0.664	0.938
NCI-H838	1.03	1.09	–	1	0.956	1.25	–	0.736	0.931	0.464	0.497	0.469	0.488	0.424	0.88	0.988	–	0.883	0.852	1.01
NCI-H1355	1.05	–	1.08	0.978	1.13	–	1.21	1.03	1.15	0.359	–	0.35	0.345	0.35	0.812	–	0.822	0.762	0.699	0.99
NCI-H1437	1.11	–	1.12	1.04	1.02	1.15	1.1	1.07	0.878	0.587	0.664	0.597	0.629	0.578	0.692	0.703	0.719	0.686	0.604	0.957
NCI-H1650	0.919	0.778	1.03	0.922	1.04	1.06	1.2	0.904	1.11	0.476	0.367	0.42	0.371	0.425	1	0.938	0.944	0.859	0.84	0.993
NCI-H1651	1.1	0.876	1.03	0.967	0.916	0.775	–	0.855	0.891	0.56	0.297	0.643	0.591	0.599	0.173	0.231	0.177	0.19	0.166	0.948
NCI-H1666	–	0.958	0.98	1.15	1.02	1.09	0.991	1.14	0.966	0.699	0.716	0.779	0.796	0.727	0.734	0.763	0.769	0.833	0.74	1.01
NCI-H1734	1.04	–	1.09	0.996	0.674	–	0.891	0.642	–	0.522	–	0.573	0.486	0.533	0.621	–	0.605	0.648	0.639	0.876
NCI-H1755	1.08	0.988	–	0.958	1.08	1.12	1.06	0.808	0.794	0.689	0.693	0.702	0.708	0.69	0.946	0.848	0.968	0.881	0.85	1.01
NCI-H1792	0.946	0.921	1.03	0.948	1.4	–	0.931	0.92	0.946	0.573	0.496	0.576	–	0.449	0.477	0.481	0.225	–	0.33	0.87
